Assay results: ChEMBL document CHEMBL4266001, “Potent Antimalarial Activity of Two Arenes Linked with Triamine Designed To Have Multiple Interactions with Heme” (ACS Med Chem Lett, 2018)
pIC50: −log10 of the molar value. Active and inactive are the calls of the source. The rule behind the calls is not given here.

Tests used:
[1] = Selectivity index, ratio of cytotoxic concentration for human MRC5 cells to IC50 for chloroquine-resistant Plasmodium falciparum K1 infected in human erythrocytes
Plasmodium falciparum [2] = test: Antiplasmodial activity against chloroquine-sensitive Plasmodium falciparum FCR-3 infected in human erythrocytes measured after 72 hrs by malstat reagent based LDH release assay; assay type: functional, organism-based; conditions: FCR-3/Gambia
Plasmodium falciparum [3] = test: Antiplasmodial activity against chloroquine-resistant Plasmodium falciparum K1 infected in human erythrocytes measured after 72 hrs by malstat reagent based LDH release assay; assay type: functional, organism-based; conditions: K1, 72 h
[4] = Binding affinity to hemin at pH 5.2 by ITC
[5] = Inhibition of Plasmodium falciparum FCR-3 HDP expressed in Escherichia coli assessed as reduction in hemazoin formation; design: species or system Plasmodium falciparum FCR-3/Gambia
Plasmodium berghei [6] = test: Antimalarial activity against Plasmodium berghei N infected in mouse assessed as mouse survival at 15 mg/kg, po once daily for 4 consecutive days starting from 2 hrs post infection relative to control; assay type: functional
Plasmodium berghei [7] = test: Antimalarial activity against Plasmodium berghei N infected in mouse assessed as inhibition of parasitemia at 15 mg/kg, po once daily for 4 consecutive days starting from 2 hrs post infection measured on day 4 post last dose relative to control; assay type: functional
Plasmodium berghei [8] = test: animal or person; assay type: functional; conditions: N, in Mus musculus, po
Plasmodium berghei [9] = test: Antimalarial activity against Plasmodium berghei N infected in mouse assessed as mouse survival at 30 mg/kg, sc once daily for 4 consecutive days starting from 2 hrs post infection relative to control; assay type: functional
Plasmodium berghei [10] = test: Antimalarial activity against Plasmodium berghei N infected in mouse assessed as mouse survival at 30 mg/kg, po once daily for 4 consecutive days starting from 2 hrs post infection relative to control; assay type: functional
Plasmodium berghei [11] = test: animal or person; assay type: functional; conditions: N, in Mus musculus, sc

SMILES	selectivity ratio [1]	pIC50 (Plasmodium falciparum [2])	pIC50 (Plasmodium falciparum [3])	also measured
CN(CCNC(=O)C=Cc1ccc2ccccc2n1)CCNc1ccnc2cc(Cl)ccc12	6	7.12	6.06	
CN(CCNc1nccc2ccccc12)CCNc1ccnc2cc(Cl)ccc12	36	7.62	6.57	
CN(CCNc1ncccn1)CCNc1ccnc2cc(Cl)ccc12	40	6.68	6.12	
CN(CCCNc1ccc2ccccc2n1)CCCNc1ccnc2cc(Cl)ccc12	61	9.04	7.43	Activity [4]: Active; pIC50 [5]: 9.04
C[C@H]1[C@H](OC(=O)CCC(=O)O)O[C@@H]2O[C@@]3(C)CC[C@H]4[C@H](C)CC[C@@H]1[C@@]24OO3 [ARTESUNATE]				survival at 15 mg/kg (Plasmodium berghei [6]): 103%; inhibition in vivo at 15 mg/kg (Plasmodium berghei [7]): 95.2%
CN(CCNc1ccccn1)CCNc1ccnc2cc(Cl)ccc12	430	6.29	5.96	
CN(CCCNc1ccnc2cc(Cl)ccc12)CCCNc1ccnc2cc(Cl)ccc12	66	7.01	7.68	
CN(CCNc1nc2ccccc2[nH]1)CCNc1nc2ccccc2[nH]1	4.7	4.76	4.72	
CCN(CC)CCCC(C)Nc1ccnc2cc(Cl)ccc12 (stereo unspecified) [CHLOROQUINE]				Activity [4]: Active; pIC50 [5]: 7.34
CN(CCNc1ccc2ccccc2n1)CCNc1ccnc2cc(Cl)ccc12	36	7.54	6.43	
CN(CCNC(=O)C=Cc1ccc2ccccc2c1)CCNc1ccnc2cc(Cl)ccc12	1200	7.92	7.55	inhibition in vivo at 30 mg/kg (Plasmodium berghei [8]): 23.5%; Activity [4]: Active; pIC50 [5]: 7.92; survival at 30 mg/kg (Plasmodium berghei [9]): 223%; survival at 30 mg/kg (Plasmodium berghei [10]): 100%; inhibition in vivo at 30 mg/kg (Plasmodium berghei [11]): 100%
CN(CCNc1ccc2ccccc2n1)CCNc1ccc2ccccc2n1	17	4.68	4.74	
CN(CCNc1nc2ccccc2[nH]1)CCNc1ccnc2cc(Cl)ccc12	8.5	6.64	5.51	
CN(CCCNC(=O)C=Cc1ccc2ccccc2c1)CCCNc1ccnc2cc(Cl)ccc12	140	8.31	8.00	
CN(CCNC(=O)C=Cc1cnc[nH]1)CCNc1ccnc2cc(Cl)ccc12	> 14	6.12	4.74	
